Data from BindingDB's records for doi:10.1016/j.bmcl.2019.126932 (Japan Tobacco, 2020).

Experiments:
[1] = Inhibition of NS5A in Hepatitis C virus subtype 1b replicon infected in human HuH7 cells assessed as reduction in viral replication
[2] = Inhibition of NS5A in Hepatitis C virus subtype 1a replicon infected in human HuH7 cells assessed as reduction in viral replication
[3] = Inhibition of NS5A in Hepatitis C virus subtype 2a replicon infected in human HuH7 cells assessed as reduction in viral replication

SMILES | EC50 [1] | EC50 [2] | EC50 [3]
COC(=O)N[C@@H](C(=O)N1CCC[C@H]1c1ncc(-c2ccc(-c3ccc(-c4cnc([C@@H]5CCCN5C(=O)[C@H](NC(=O)OC)c5ccccc5)[nH]4)cc3)cc2)[nH]1)c1ccccc1 | 0.014 nM | 0.098 nM | –
COC(=O)N[C@@H](C(=O)N1CCC[C@H]1c1ncc[nH]1)c1ccccc1 | > 10000 nM | > 10000 nM | –
COC(=O)N[C@@H](C(=O)N1CCC[C@H]1c1nc(-c2ccc(-c3ccccc3)cc2)c[nH]1)c1ccccc1 | 57 nM | 2800 nM | –
CCCC(=O)Nc1ccc(-c2ccc(-c3c[nH]c([C@@H]4CCCN4C(=O)[C@H](NC(=O)OC)c4ccccc4)n3)cc2)cc1 | 0.34 nM | 2800 nM | –
CCCC(=O)Nc1ccc(-c2ccc(-c3c[nH]c([C@@H]4CCCN4C(=O)[C@H](NC(=O)c4ccccc4)c4ccccc4)n3)cc2)cc1 | – | 2400 nM | –
CCCC(=O)Nc1ccc(-c2ccc(-c3c[nH]c([C@@H]4CCCN4C(=O)[C@H](NC(=O)CCCc4ccccc4)c4ccccc4)n3)cc2)cc1 | – | 1300 nM | –
CCCC(=O)Nc1ccc(-c2ccc(-c3c[nH]c([C@@H]4CCCN4C(=O)[C@H](NC(=O)CCCCCCc4ccccc4)c4ccccc4)n3)cc2)cc1 | – | 642 nM | –
CCCC(=O)Nc1ccc(-c2ccc(-c3c[nH]c([C@@H]4CCCN4C(=O)[C@H](NC(=O)CCCNC(=O)OCc4ccccc4)c4ccccc4)n3)cc2)cc1 | 0.15 nM | 56 nM | –
CCCC(=O)Nc1ccc(-c2ccc(-c3c[nH]c([C@@H]4CCCN4C(=O)[C@H](NC(=O)c4ccccc4NC(=O)OCc4ccccc4)c4ccccc4)n3)cc2)cc1 | – | 614 nM | –
CCCC(=O)Nc1ccc(-c2ccc(-c3c[nH]c([C@@H]4CCCN4C(=O)[C@H](NC(=O)c4cccc(NC(=O)OCc5ccccc5)c4)c4ccccc4)n3)cc2)cc1 | 0.076 nM | 44 nM | –
CCCC(=O)Nc1ccc(-c2ccc(-c3c[nH]c([C@@H]4CCCN4C(=O)[C@H](NC(=O)c4ccc(NC(=O)OCc5ccccc5)cc4)c4ccccc4)n3)cc2)cc1 | – | 131 nM | –
CCCC(=O)Nc1ccc(-c2ccc(-c3c[nH]c([C@@H]4CCCN4C(=O)[C@H](NC(=O)N4CCC[C@H](NC(=O)OCc5ccccc5)C4)c4ccccc4)n3)cc2)cc1 | – | 247 nM | –
CCCC(=O)Nc1ccc(-c2ccc(-c3c[nH]c([C@@H]4CCCN4C(=O)[C@H](NC(=O)N4CCC[C@@H](NC(=O)OCc5ccccc5)C4)c4ccccc4)n3)cc2)cc1 | 0.023 nM | 100 nM | –
CCCC(=O)Nc1ccc(-c2ccc(-c3c[nH]c([C@@H]4CCCN4C(=O)[C@H](NC(=O)N4CC[C@H](NC(=O)OCc5ccccc5)C4)c4ccccc4)n3)cc2)cc1 | 0.037 nM | 82 nM | –
CCCC(=O)Nc1ccc(-c2ccc(-c3c[nH]c([C@@H]4CCCN4C(=O)[C@H](NC(=O)N4CC[C@@H](NC(=O)OCc5ccccc5)C4)c4ccccc4)n3)cc2)cc1 | 0.0048 nM | 1.1 nM | –
CCCC(=O)Nc1ccc(-c2ccc(-c3c[nH]c([C@@H]4CCCN4C(=O)[C@H](NC(=O)N4CCCC4)c4ccccc4)n3)cc2)cc1 | – | 353 nM | –
CCCC(=O)Nc1ccc(-c2ccc(-c3c[nH]c([C@@H]4CCCN4C(=O)[C@H](NC(=O)N4CC[C@@H](NC(=O)OC)C4)c4ccccc4)n3)cc2)cc1 | 0.043 nM | 353 nM | –
O=C(CCCNC(=O)OCc1ccccc1)N[C@@H](C(=O)N1CCC[C@H]1c1nc(-c2ccc(-c3ccc(NC(=O)c4ccccc4)cc3)cc2)c[nH]1)c1ccccc1 | 0.025 nM | 34 nM | –
COCc1ccc(C(=O)Nc2ccc(-c3ccc(-c4c[nH]c([C@@H]5CCCN5C(=O)[C@H](NC(=O)CCCNC(=O)OCc5ccccc5)c5ccccc5)n4)cc3)cc2)cc1 | 0.0042 nM | 3.5 nM | –
COC1CCC(C(=O)Nc2ccc(-c3ccc(-c4c[nH]c([C@@H]5CCCN5C(=O)[C@H](NC(=O)CCCNC(=O)OCc5ccccc5)c5ccccc5)n4)cc3)cc2)CC1 (stereo partly drawn) | 0.0049 nM | 8.1 nM | –
COC1CCN(C(=O)Nc2ccc(-c3ccc(-c4c[nH]c([C@@H]5CCCN5C(=O)[C@H](NC(=O)CCCNC(=O)OCc5ccccc5)c5ccccc5)n4)cc3)cc2)CC1 | 0.02 nM | 2.3 nM | –
COC1CCN(C(=O)Nc2ccc(-c3ccc(-c4c[nH]c([C@@H]5CCCN5C(=O)[C@H](NC(=O)N5CC[C@@H](NC(=O)OCc6ccccc6)C5)c5ccccc5)n4)cc3)cc2)CC1 | 0.028 nM | 0.039 nM | 0.018 nM
